Results taken from patent publication US20240246964A1 (Arbutus Biopharma Corporation, priority 2021, published 2024).

Biological target: human PD-L1 (Homo sapiens (Human), UniProt Q9NZQ7)
Assay: T cell activation luciferase reporter cell culture system (T Cell Activation Assay)
Type: cell-based
Settings: luciferase reporter assay; PD-L1 aAPC/CHO-K1 cells with PD-1 effector Jurkat T cells

human PD-L1, sequence (Q9NZQ7 19-290): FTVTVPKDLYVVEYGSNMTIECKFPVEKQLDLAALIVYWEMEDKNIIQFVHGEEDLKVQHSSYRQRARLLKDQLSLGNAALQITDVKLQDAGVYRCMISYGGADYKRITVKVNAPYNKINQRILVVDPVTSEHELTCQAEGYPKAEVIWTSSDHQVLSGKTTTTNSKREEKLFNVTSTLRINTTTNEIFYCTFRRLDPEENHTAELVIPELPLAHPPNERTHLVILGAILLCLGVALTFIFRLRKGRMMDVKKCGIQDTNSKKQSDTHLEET

SMILES: COc1cc(-c2nccc(-c3cccc(-c4ccc(CN5CC6(C5)CN(C(C)=O)C6)c(OC)n4)c3C)c2Cl)ccc1CN1CC2(C1)CN(C(C)=O)C2 [Example 409, 1-(6-((6-(3-(2-(4-((6-acetyl-2,6-diazaspiro[3.3]heptan-2-yl)methyl)-3-methoxyphenyl)-3-chloropyridin-4-yl)-2-methylphenyl)-2-methoxypyridin-3-yl)methyl)-2,6-diazaspiro[3.3]heptan-2-yl)ethan-1-one]
- EC50: 274 nM

SMILES: COc1cc(-c2nccc(-c3cccc(-c4ccc(CN[C@H]5CC[C@@H](O)CC5)c(OC)n4)c3Cl)c2Cl)ccc1CN[C@H]1CC[C@@H](O)CC1 [Example 410, (1s,4s)-4-(((6-(2-Chloro-3-(3-chloro-2-(4-((((1s,4s)-4-hydroxycyclohexyl)amino)methyl)-3-methoxyphenyl)pyridin-4-yl)phenyl)-2-methoxypyridin-3-yl)methyl)amino)cyclohexan-1-ol]
- EC50: 46.3 nM

SMILES: COc1cc(-c2nccc(-c3cccc(-c4ccc(CN5CCOCC5)c(OC)n4)c3Cl)c2Cl)ccc1CN1CCOCC1 [Example 411, 4-((6-(2-Chloro-3-(3-chloro-2-(3-methoxy-4-(morpholinomethyl)phenyl)pyridin-4-yl)phenyl)-2-methoxypyridin-3-yl)methyl)morpholine]
- EC50: ≥ 10000 nM

SMILES: COc1cc(-c2nccc(-c3cccc(-c4ccc(CN5CCC(O)CC5)c(OC)n4)c3Cl)c2Cl)ccc1CN1CCC(O)CC1 [Example 412, 1-((6-(2-Chloro-3-(3-chloro-2-(4-((4-hydroxypiperidin-1-yl)methyl)-3-methoxyphenyl)pyridin-4-yl)phenyl)-2-methoxypyridin-3-yl)methyl)piperidin-4-ol]
- EC50: 15.7 nM

SMILES: COc1cc(-c2nccc(-c3cccc(-c4ccc(CNC5CCN(C)C(=O)C5)c(OC)n4)c3Cl)c2Cl)ccc1CNC1CCN(C)C(=O)C1 (stereo not drawn) [Example 418, 4-(((6-(2-Chloro-3-(3-chloro-2-(3-methoxy-4-(((1-methyl-2-oxopiperidin-4-yl)amino)methyl)phenyl)pyridin-4-yl)phenyl)-2-methoxypyridin-3-yl)methyl)amino)-1-methylpiperidin-2-one]
- EC50: 11.8 nM

SMILES: COc1cc(-c2nccc(-c3cccc(-c4ccc(CNC5CCN(C(=O)N(C)C)CC5)c(OC)n4)c3Cl)c2Cl)ccc1CNC1CCN(C(=O)N(C)C)CC1 [Example 419, 4-(((6-(2-Chloro-3-(3-chloro-2-(4-(((1-(dimethylcarbamoyl)piperidin-4-yl)amino)methyl)-3-methoxyphenyl)pyridin-4-yl)phenyl)-2-methoxypyridin-3-yl)methyl)amino)-N,N-dimethylpiperidine-1-carboxamide]
- EC50: 19.5 nM

SMILES: COc1cc(-c2nccc(-c3cccc(-c4ccc(CNC5CCN(CC(F)F)CC5)c(OC)n4)c3Cl)c2Cl)ccc1CNC1CCN(CC(F)F)CC1 [Example 420, N-((6-(2-Chloro-3-(3-chloro-2-(4-(((1-(2,2-difluoroethyl)piperidin-4-yl)amino)methyl)-3-methoxyphenyl)pyridin-4-yl)phenyl)-2-methoxypyridin-3-yl)methyl)-1-(2,2-difluoroethyl)piperidin-4-amine]
- EC50: 42.6 nM

SMILES: COc1cc(-c2nccc(-c3cccc(-c4ccc(CN5CCC(NC(C)=O)CC5)c(OC)n4)c3Cl)c2Cl)ccc1CNC1CCOCC1 [Example 432, N-(1-((6-(2-Chloro-3-(3-chloro-2-(3-methoxy-4-(((tetrahydro-2H-pyran-4-yl)amino)methyl)phenyl)pyridin-4-yl)phenyl)-2-methoxypyridin-3-yl)methyl)piperidin-4-yl)acetamide]
- EC50: 52.1 nM

SMILES: COc1cc(-c2nccc(-c3cccc(-c4ccc(CN5CC6(CNC(=O)C6)C5)c(OC)n4)c3Cl)c2C#N)ccc1CN1CC2(CNC(=O)C2)C1 [Example 433, 4-(2-Chloro-3-(6-methoxy-5-((7-oxo-2,6-diazaspiro[3.4]octan-2-yl)methyl)pyridin-2-yl)phenyl)-2-(3-methoxy-4-((7-oxo-2,6-diazaspiro[3.4]octan-2-yl)methyl)phenyl)nicotinonitrile]
- EC50: 39.9 nM
